# Experimental data as given in patent publication US20010049374A1 (priority 1997, published 2001).
# Where two headings read alike, the source gives them in different places.
# Columns and labels:
# tumor metastasis = details: in vivo; Kellen et al. 1988; cited from earlier work
# [1] = test system: angiogenesis/capillary network formation; details: in vitro; Alliegro and Glaser 1991; cited from earlier work
# [2] = target: T1, urokinase enzyme Abbokinase (Homo sapiens, UniProt P00749); assay: Determination of urokinase inhibition (Abbokinase, chromogenic substrate S-2444); format: biochemical; details: substrate S-2444 at 200 μM, enzyme 2-3 nM, pH 7.4, 405 nm
# T1 construct: purchased Abbott Laboratories, Abbott Park, Ill
# [3] = Inhibitory potency against urokinase, read-out: IC50
# [4] = IC50, Inhibitory potency against urokinase
"IC50 [2, 4] [nM]",Compound,"IC50 [2, 3] [nM]",other results
,N=C(N)NC(=O)c1nc(Cl)c(N)nc1N [Amiloride],,inhibition of tumor metastasis (tumor metastasis): inhibit tumor metastasis in vivo; inhibition of angiogenesis/capillary network formation [1]: angiogenesis/capillary network formation in vitro
,N-[7-(aminoiminomethyl)-1-naphthalenyl)propanamide [Example 159],2230,
,"CCSC1CC(c2cc(C(=O)Nc3ccccc3)cc3ccc(C(=N)N)cc23)CO1 (centres unmarked) [Example 232, 6-(aminoiminomethyl)-4-[5-(ethythio)tetrahydro-3-furanyl]-N-phenyl-2-naphthalenecarboxamide]",123,
,6-(aminoiminomethyl)-N-(5-bromo-2-pyridinyl)-2-naphthalenecarboxamide [Example 210],780,
2200,"CCCOc1ccc2ccc(C(=N)N)cc2c1I [Example 43, 7-Propoxy-8-iodo-2-naphthalenecarboximidamide]",,
760,"COc1ccc2ccc(C(=N)N)cc2c1Nc1ncccn1 [Example 106, 7-methoxy-8-(2-pyrimidinylamino)-2-naphthalenecarboximidamide]",,
170,"N=C(N)c1ccc2cccc(Nc3ccccn3)c2c1 [Example 174, 8-(2-pyridinylamino)-2-naphthalenecarboximidamide]",,
,"6-(aminoiminomethyl)-N-(2,3-dihydro-1H-inden-5-yl)-2-naphthalenecarboxamide [Example 118]",121,
3800,"COc1ccc2ccc(C(=N)N)cc2c1Sc1ccccc1 [Example 149, 7-methoxy-8-(phenylthio)-2-naphthalenecarboximidamide]",,
460,"N=C(N)c1ccc2cc(NC(=O)Nc3ccc(CN)cc3)ccc2c1 [Example 140, N-[6-(aminoiminomethyl)-2-naphthalenyl]-N′-[(4-aminomethyl)phenyl]urea]",,
,"N=C(N)c1ccc2cc(C#Cc3ccccn3)ccc2c1 [Example 179, 6-(2-pyridinylethynyl)-2-naphthalenecarboximidamide]",1610,
,N-[7-(aminoiminomethyl )-1-naphthalenyl]urea [Example 161],1590,
,N-[7-(aminoiminomethyl)-1-naphthalenyl)-2-methoxyacetamide [Example 160],2620,
,N-(6-aminoiminomethyl-2-naphthalenyl)-N′-benzyloxyurea [Example 75],2090,
890,"N=C(N)c1ccc2cc(C#Cc3ccc(N)cc3)ccc2c1 [Example 121, 6-[(4-aminophenyl)ethynyl]-2-naphthalenecarboximidamide]",,
,4-[7-(Aminoiminomethyl)-2-methoxy-1-naphthalenyl]dihydro-2(3H)-furanone [Example 85],1380,
